pIC50: −log10 of the molar value.
The compounds below were run against T1, human LPA1 (Homo sapiens, UniProt Q92633) (assay: LPA1 functional antagonist assay (calcium flux)). Details: CHO cells overexpressing human LPA1; calcium flux induced by 10 nM LPA; read-out: hLPA1 IC50.
T1 construct: expressed in transfected cells; host or cells: Chinese hamster ovary (CHO) cells
Type: cell-based
Method: The effectiveness of compounds of the present invention as LPA1 inhibitors can be determined in an LPA1 functional antagonist assay as follows:
The cells were then equilibrated to room temperature for 30 minutes before the assay. […] IC50 values were determined by fitting data to a 4-parameter logistic equation (GraphPad Prism, San Diego Calif.).

T1 sequence (Q92633 whole entry): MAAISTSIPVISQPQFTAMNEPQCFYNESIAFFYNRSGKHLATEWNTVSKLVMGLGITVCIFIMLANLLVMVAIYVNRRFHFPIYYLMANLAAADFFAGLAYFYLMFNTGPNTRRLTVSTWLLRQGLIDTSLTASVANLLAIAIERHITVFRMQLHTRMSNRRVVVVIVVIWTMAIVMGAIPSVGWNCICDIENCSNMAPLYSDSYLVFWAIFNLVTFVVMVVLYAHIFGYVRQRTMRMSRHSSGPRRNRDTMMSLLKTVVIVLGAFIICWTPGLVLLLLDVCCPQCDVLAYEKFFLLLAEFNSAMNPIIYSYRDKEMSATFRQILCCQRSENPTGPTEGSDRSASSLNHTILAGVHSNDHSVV

| Compound | pIC50 |
| --- | --- |
| Cc1nc(-c2nnn(C)c2CCNC(=O)OCc2ccccc2Cl)ccc1O[C@H]1CCC[C@H](C(=O)O)C1 [Example 103, (1S,3S)-3-((6-(5-(2-((((2-chloro-benzyl)oxy)carbonyl)amino)ethyl)-1-methyl-1H-1,2,3-triazol-4-yl)-2-methylpyridin-3-yl)oxy)cyclohexane-1-carboxylic acid] | 6.23 |
| Cc1nc(-c2nnn(C)c2CCNC(=O)OCC(C)(C)C)ccc1O[C@H]1CCC[C@H](C(=O)O)C1 [Example 104, (1S,3S)-3-((2-methyl-6-(1-methyl-5-(2-(((neopentyloxy)carbonyl)amino)ethyl)-1H-1,2,3-triazol-4-yl)pyridin-3-yl)oxy)cyclohexane-1-carboxylic acid] | 5.87 |
| Cc1nc(-c2nnn(C)c2CCNC(=O)OC2CCCC2)ccc1O[C@H]1CCC[C@H](C(=O)O)C1 [Example 105, (1S,3S)-3-((6-(5-(2-(((cyclopentyl-oxy)carbonyl)amino)ethyl)-1-methyl-1H-1,2,3-triazol-4-yl)-2-methyl-pyridin-3-yl)oxy)cyclohexane-1-carboxylic acid] | 5.74 |
| Cc1nc(-c2nnn(C)c2CCNC(=O)OCc2ccccc2)ccc1O[C@H]1CCC[C@H](C(=O)O)C1 [Example 106, (1S,3S)-3-((6-(5-(2-(((benzyloxy)carbonyl)amino)ethyl)-1-methyl-1H-1,2,3-triazol-4-yl)-2-methylpyridin-3-yl)oxy)cyclohexane-1-carboxylic acid] | 6.28 |
| CCCCOC(=O)NCCc1c(-c2ccc(O[C@H]3CCC[C@H](C(=O)O)C3)c(C)n2)nnn1C [Example 107, (1S,3S)-3-((6-(5-(2-((butoxy-carbonyl)amino)ethyl)-1-methyl-1H-1,2,3-triazol-4-yl)-2-methylpyridin-3-yl)oxy)cyclohexane-1-carboxylic acid] | 5.83 |
| Cc1nc(-c2nnn(C)c2CNC(=O)NCc2ccccc2)ccc1O[C@H]1CCC[C@H](C(=O)O)C1 [Example 112, (1S,3S)-3-((6-(5-((3-benzylureido)methyl)-1-methyl-1H-1,2,3-triazol-4-yl)-2-methylpyridin-3-yl)oxy)cyclohexane-1-carboxylic acid] | 7.20 |
| Cc1nc(-c2nnn(C)c2CN(C)C(=O)N(C)Cc2ccccc2)ccc1O[C@H]1CCC[C@H](C(=O)O)C1 [Example 115, (1S,3S)-3-((6-(5-((3-benzyl-1,3-dimethylureido)methyl)-1-methyl-1H-1,2,3-triazol-4-yl)-2-methyl-pyridin-3-yl)oxy)cyclohexane-1-carboxylic acid] | 6.78 |
| Cc1nc(-c2nnn(C)c2CNC(=O)NC2CC3CCC2C3)ccc1O[C@H]1CCC[C@H](C(=O)O)C1 (stereo partly drawn) [Example 117, (1S,3S)-3-((6-(5-((3-(bicyclo [2.2.1]heptan-2-yl)ureido)methyl)-1-methyl-1H-1,2,3-triazol-4-yl)-2-methylpyridin-3-yl)oxy)cyclohexane-1-carboxylic acid] | 6.38 |
| Cc1nc(-c2nnn(C)c2CNC(=O)NCC2CC(F)(F)C2)ccc1O[C@H]1CCC[C@H](C(=O)O)C1 [Example 123, (1S,3S)-3-((6-(5-((3-((3,3-difluorocyclo-butyl)methyl)ureido)methyl)-1-methyl-1H-1,2,3-triazol-4-yl)-2-methylpyridin-3-yl)oxy)cyclohexane-1-carboxylic acid] | 6.03 |
| Cc1nc(-c2nnn(C)c2CNC(=O)N[C@H](C)c2ccccc2)ccc1O[C@H]1CCC[C@H](C(=O)O)C1 [Example 130, (1S,3S)-3-((2-methyl-6-(1-methyl-5-((3-((R)-1-phenylethyl)ureido)methyl)-1H-1,2,3-triazol-4-yl)pyridin-3-yl)oxy)cyclohexane-1-carboxylic acid] | 6.56 |
| Cc1nc(-c2nnn(C)c2NC(=O)NCc2ccccc2)ccc1O[C@H]1CCC[C@H](C(=O)O)C1 [Example 135, (1S,3S)-3-((6-(5-(3-benzylureido)-1-methyl-1H-1,2,3-triazol-4-yl)-2-methylpyridin-3-yl)oxy)cyclohexane-1-carboxylic acid] | 6.48 |
| Cc1nc(-c2nnn(C)c2NC(=O)N[C@H](C)c2ccccc2)ccc1O[C@H]1CCC[C@H](C(=O)O)C1 [Example 136, (1S,3S)-3-((2-methyl-6-(1-methyl-5-(3-((R)-1-phenylethyl)ureido)-1H-1,2,3-triazol-4-yl)pyridin-3-yl)oxy) cyclohexane-1-carboxylic acid] | 6.99 |

Other lines, results leading:

| pIC50 | Compound |
| --- | --- |
| 7.09 | Cc1nc(-c2nnn(C)c2CNC(=O)N(C)CC2CCC2)ccc1O[C@H]1CCC[C@H](C(=O)O)C1 [Example 108, (1S,3S)-3-((6-(5-((3-(cyclobutylmethyl)-3-methylureido)methyl)-1-methyl-1H-1,2,3-triazol-4-yl)-2-methylpyridin-3-yl)oxy)cyclohexanecarboxylic acid] |
| 7.07 | Cc1nc(-c2nnn(C)c2CNC(=O)N(C)Cc2ccccc2)ccc1O[C@H]1CCC[C@H](C(=O)O)C1 [Example 109, (1S,3S)-3-((6-(5-((3-benzyl-3-methyl-ureido)methyl)-1-methyl-1H-1,2,3-triazol-4-yl)-2-methylpyridin-3-yl)oxy)cyclohexanecarboxylic acid] |
| 6.66 | CCCN(C)C(=O)NCc1c(-c2ccc(O[C@H]3CCC[C@H](C(=O)O)C3)c(C)n2)nnn1C [Example 110, (1S,3S)-3-((2-methyl-6-(1-methyl-5-((3-methyl-3-propylureido)methyl)-1H-1,2,3-triazol-4-yl)pyridin-3-yl)oxy)cyclohexanecarboxylic acid] |
| 6.65 | CCCCCN(C)C(=O)NCc1c(-c2ccc(O[C@H]3CCC[C@H](C(=O)O)C3)c(C)n2)nnn1C [Example 111, (1S,3S)-3-((2-methyl-6-(1-methyl-5-((3-methyl-3-pentylureido)methyl)-1H-1,2,3-triazol-4-yl)pyridin-3-yl)oxy)cyclohexanecarboxylic acid] |
| 6.66 | Cc1nc(-c2nnn(C)c2CN(C)C(=O)NCc2ccccc2)ccc1O[C@H]1CCC[C@H](C(=O)O)C1 [Example 113, (1S,3S)-3-((6-(5-((3-benzyl-1-methylureido)methyl)-1-methyl-1H-1,2,3-triazol-4-yl)-2-methyl-pyridin-3-yl)oxy)cyclohexane-1-carboxylic acid] |
| 6.95 | Cc1nc(-c2nnn(C)c2CNC(=O)N(C)CCC2CC2)ccc1O[C@H]1CCC[C@H](C(=O)O)C1 [Example 114, (1S,3S)-3-((6-(5-((3-(2-cyclopropyl-ethyl)-3-methylureido)methyl)-1-methyl-1H-1,2,3-triazol-4-yl)-2-methylpyridin-3-yl)oxy)cyclohexane-1-carboxylic acid] |
| 7.04 | Cc1nc(-c2nnn(C)c2CNC(=O)N(C)CCC(C)C)ccc1O[C@H]1CCC[C@H](C(=O)O)C1 [Example 116, (1S,3S)-3-((6-(5-((3-isopentyl-3-methyl-ureido)methyl)-1-methyl-1H-1,2,3-triazol-4-yl)-2-methylpyridin-3-yl)oxy)cyclohexane-1-carboxylic acid] |
| 7.00 | Cc1nc(-c2nnn(C)c2CNC(=O)NCCC(C)C)ccc1O[C@H]1CCC[C@H](C(=O)O)C1 [Example 122, (1S,3S)-3-((6-(5-((3-isopentyl-ureido)methyl)-1-methyl-1H-1,2,3-triazol-4-yl)-2-methylpyridin-3-yl)oxy)cyclohexane-1-carboxylic acid] |
| 6.36 | CCCCNC(=O)NCc1c(-c2ccc(O[C@H]3CCC[C@H](C(=O)O)C3)c(C)n2)nnn1C [Example 124, (1S,3S)-3-((6-(5-((3-butylureido)methyl)-1-methyl-1H-1,2,3-triazol-4-yl)-2-methylpyridin-3-yl)oxy)cyclohexane-1-carboxylic acid] |
| 5.64 | Cc1nc(-c2nnn(C)c2CNC(=O)NCC(C)C)ccc1O[C@H]1CCC[C@H](C(=O)O)C1 [Example 127, (1S,3S)-3-((6-(5-((3-isobutylureido)methyl)-1-methyl-1H-1,2,3-triazol-4-yl)-2-methylpyridin-3-yl)oxy)cyclohexane-1-carboxylic acid] |
| 6.56 | Cc1nc(-c2nnn(C)c2CNC(=O)N(C)CC(C)C)ccc1O[C@H]1CCC[C@H](C(=O)O)C1 [Example 128, (1S,3S)-3-((6-(5-((3-isobutyl-3-methylureido)methyl)-1-methyl-1H-1,2,3-triazol-4-yl)-2-methylpyridin-3-yl)oxy)cyclohexane-1-carboxylic acid] |
| 6.66 | Cc1nc(-c2nnn(C)c2CNC(=O)N(C)[C@H](C)c2ccccc2)ccc1O[C@H]1CCC[C@H](C(=O)O)C1 [Example 131, (1S,3S)-3-((2-methyl-6-(1-methyl-5-((3-methyl-3-((R)-1-phenylethyl)ureido)methyl)-1H-1,2,3-triazol-4-yl)pyridin-3-yl)oxy)cyclohexane-1-carboxylic acid] |
| 6.56 | Cc1nc(-c2nnn(C)c2CNC(=O)N(C)[C@@H](C)c2ccccc2)ccc1O[C@H]1CCC[C@H](C(=O)O)C1 [Example 132, (1S,3S)-3-((2-methyl-6-(1-methyl-5-((3-methyl-3-((S)-1-phenylethyl)ureido)methyl)-1H-1,2,3-triazol-4-yl)pyridin-3-yl)oxy)cyclohexane-1-carboxylic acid] |
| 5.96 | Cc1nc(-c2nnn(C)c2CNC(=O)N(C)C(C)(C)C)ccc1O[C@H]1CCC[C@H](C(=O)O)C1 [Example 133, (1S,3S)-3-((6-(5-((3-(tert-butyl)-3-methylureido)methyl)-1-methyl-1H-1,2,3-triazol-4-yl)-2-methylpyridin-3-yl)oxy)cyclohexane-1-carboxylic acid] |
| 6.28 | Cc1nc(-c2nnn(C)c2CNC(=O)N(C)C(C)C)ccc1O[C@H]1CCC[C@H](C(=O)O)C1 [Example 134, (1S,3S)-3-((6-(5-((3-isopropyl-3-methylureido)methyl)-1-methyl-1H-1,2,3-triazol-4-yl)-2-methylpyridin-3-yl)oxy)cyclohexane-1-carboxylic acid] |
